Results from publication PMC2391127, “Modulation of erlotinib pharmacokinetics in mice by a novel cytochrome P450 3A4 inhibitor, BAS 100” (British Journal of Cancer, 2008).
Read-outs that look alike come from different tables or passages of the source.

How the values were obtained:
[1] = 2-h plasma concentration of erlotinib in CYP3A4 transgenic mice; conditions: female, mouse, in vivo, po, 10 mg kg^-1
Experimental: BAS 100 was obtained from Bioavailabilty Systems (Cocoa Beach, FL, USA), and erlotinib and OSI-420 were obtained from Toronto Research Chemicals (North York, ON, Canada). All other chemicals and reagents were purchased from Sigma-Aldrich (St Louis, MO, USA). Female BALB/c mice (6–8 weeks old) were kept in a controlled environment, with food and water available ad libitum. All procedures were carried out with NCI Animal Care and Use Committee approval. In the first study, BAS 100 and erlotinib were formulated in 10% DMSO and 5% polysorbate 80 in saline. Mice were randomised to receive erlotinib (10 mg kg^−1, p.o.) alone or 30 min after BAS 100 (10 mg kg^−1, p.o.). Blood was collected by cardiac puncture from three mice per time point at 0.083, 0.25, 0.5, 1, 2, 4, 6 and 24 h following erlotinib administration, and centrifuged to obtain plasma. In the second study, erlotinib was formulated in 0.3% carboxymethylcellulose and 0.1% polysorbate 80 in saline. […] Plasma concentrations of erlotinib and OSI-420 were measured as described previously ([Zhao et al, 2003]). Plasma concentrations of BAS 100 were measured by a novel liquid chromatography-tandem mass spectrometry method. […] The lower limit of quantitation was 10 ng ml^−1. Pharmacokinetic parameters were determined by noncompartmental analysis using WinNonlin Professional Version 5.2 (Pharsight Corporation, Mountain View, CA, USA). […]

[2] = Plasma pharmacokinetics of erlotinib, OSI-420 and BAS 100 after oral dosing in BALB/c mice; type: in vivo; conditions: for AUC(0-t) / Cmax / half-life: BALB/c; for AUC(0-t) / Cmax / half-life / Tmax: mouse, po; for half-life: read-out: HL λz (terminal half-life) (converted)
Experimental: (§1) BAS 100 was obtained from Bioavailabilty Systems (Cocoa Beach, FL, USA), and erlotinib and OSI-420 were obtained from Toronto Research Chemicals (North York, ON, Canada). All other chemicals and reagents were purchased from Sigma-Aldrich (St Louis, MO, USA). Female BALB/c mice (6–8 weeks old) were kept in a controlled environment, with food and water available ad libitum. All procedures were carried out with NCI Animal Care and Use Committee approval. In the first study, BAS 100 and erlotinib were formulated in 10% DMSO and 5% polysorbate 80 in saline. Mice were randomised to receive erlotinib (10 mg kg^−1, p.o.) alone or 30 min after BAS 100 (10 mg kg^−1, p.o.). Blood was collected by cardiac puncture from three mice per time point at 0.083, 0.25, 0.5, 1, 2, 4, 6 and 24 h following erlotinib administration, and centrifuged to obtain plasma. In the second study, erlotinib was formulated in 0.3% carboxymethylcellulose and 0.1% polysorbate 80 in saline. Female CYP3A4 transgenic mice ([Granvil et al, 2003]) and wild-type FVB/NCr mice (14 weeks old) received erlotinib (10 mg kg^−1, p.o.) alone or 30 min after BAS 100 (25 mg kg^−1, p.o.). Blood was collected 2 h after erlotinib administration. All samples were stored at −80°C until analysis. Plasma concentrations of erlotinib and OSI-420 were measured as described previously ([Zhao et al, 2003]). Plasma concentrations of BAS 100 were measured by a novel liquid chromatography-tandem mass spectrometry method. Briefly, plasma samples were prepared by protein precipitation with acetonitrile. BAS 100 and the internal standard (temazepam) were resolved isocratically on a Waters XTerra MS C18 column (50 × 2.1 mm internal diameter; 3.5 μm particle size). The mass spectrometer was equipped with an electrospray ionisation source and operated in positive mode. Detection was performed by multiple reaction monitoring. The lower limit of quantitation was 10 ng ml^−1. Pharmacokinetic parameters were determined by noncompartmental analysis using WinNonlin Professional Version 5.2 (Pharsight Corporation, Mountain View, CA, USA). Bailer's method ([Bailer, 1988]) was used to estimate the variance of the area under the curve (AUC). A Z-test was used for the pairwise comparison of AUCs ([Yuan, 1993]).

[3] = 2-h plasma concentration of erlotinib in wild-type FVB/NCr mice; type: in vivo; conditions: for concentration at 2 h: female, FVB/NCr, mouse, plasma, po
Experimental: as §1, with “Bailer's method ([Bailer, 1988]) was used to estimate the variance of the area under the curve (AUC). A Z-test was used for the pairwise comparison of AUCs ([Yuan, 1993]).” left out

[4] = ref Hidalgo et al, 2001, cited from earlier work
[5] = female, plasma, 10 mg/kg, plasma, erlotinib 10 mg kg^-1 p.o. 30 min after BAS 100 10 mg kg^-1 p.o., BALB/c mice
[6] = female, plasma, 10 mg/kg, erlotinib 10 mg kg^-1 p.o. alone (-BAS 100), BALB/c mice

For `C#Cc1cccc(Nc2ncnc3cc(OCCOC)c(OCCOC)cc23)c1` [Erlotinib], which concentration at 2 h [1] is on record?
Its concentration at 2 h is 929 ± 80 ng/mL.

And the “erlotinib exposure after 2.5-fold increase in the dose of BAS 100” value ([2]; BAS 100 25 mg kg^-1 vs 10 mg kg^-1, data not shown)?
The value was “did not result in a further increase in erlotinib exposure”.

And the “fold increase in the AUC of erlotinib by BAS 100” value ([2]; erlotinib 10 mg kg^-1 p.o. after BAS 100 10 mg kg^-1 p.o. vs alone, P<0.05)?
The value was 2.1 fold.

What about the AUC(0-t) [2, 5] of the same compound?
The AUC(0-t) was 38000 ng·h/mL.

What about the Cmax [2, 5] of the same compound?
Its Cmax is 3950 ng/mL.

What about the half-life [2, 5] of the same compound?
The half-life was 192 min.

And the half-life ([2]; female, plasma, 10 mg/kg, plasma, erlotinib 10 mg kg^-1 p.o. alone (-BAS 100), BALB/c mice)?
Its half-life is 186 min.

What about the AUC(0-t) [2, 6] of the same compound?
Its AUC(0-t) is 18000 ng·h/mL.

What about the Cmax [2, 6] of the same compound?
The Cmax was 2320 ng/mL.

And the Tmax ([2]; female, plasma, erlotinib 10 mg kg^-1 p.o. alone (-BAS 100), BALB/c mice, read-out: Tmax)?
The Tmax was 30 min.

What about the “fold increase in 2-h plasma concentration of erlotinib by BAS 100” value ([3]; BAS 100 25 mg kg^-1 p.o.) of the same compound?
The value was 1.9 fold.

And the concentration at 2 h ([3]; erlotinib 10 mg kg^-1 p.o. 30 min after BAS 100 25 mg kg^-1 p.o.)?
Its concentration at 2 h is 1410 ± 237 ng/mL.

What about the concentration at 2 h ([3]; erlotinib 10 mg kg^-1 p.o. alone) of the same compound?
The concentration at 2 h was 744 ± 135 ng/mL.

What about the “relative extent of metabolism of erlotinib into OSI-420” value ([4]; cancer patients) of the same compound?
The value was 0.12.

And the interindividual pharmacokinetic variability ([4]; patients, Tan et al, 2004)?
The interindividual pharmacokinetic variability was “up to eight-fold”.

Which Tmax ([2]; in vivo, 10 mg/kg) does the source give for `C#Cc1cccc(Nc2ncnc3cc(OCCOC)c(OCCO)cc23)c1` [OSI-420] here?
Its Tmax is 120 min.
